Data reported in ChEMBL document CHEMBL5724914, “Linking interpersonal differences in gut microbiota composition and drug biotransformation activity” (2024).

Tests used:
[1] = human gut metagenome, 24 h, 2 µM
[2] = (§1) The drug is tested on WLS-098 corresponding to human gut metagenome with ENA study accession number: PRJEB37062 and ENA sample accession number: ERS12561754 for biotransformation under anaerobic condition. The drug concentrations were measured over 9 timepoints collected between 0 and 24 hours of incubation by liquid-chromatography-coupled mass spectrometry (LC–MS); details: 2 µM
[3] = as §1, with “WLS-052” for “WLS-098”, “ERS12561747” for “ERS12561754”; details: 2 µM
[4] = as §1, with “Z-012” for “WLS-098”, “to” for “to human gut”, “ERS12561812” for “ERS12561754”; details: 2 µM
[5] = as §1, with “WLS-310” for “WLS-098”, “ERS12561785” for “ERS12561754”; details: 2 µM
[6] = human gut metagenome, 24 h, 2 µM; remark: listed apart in the source
[7] = human gut metagenome, 24 h, 2 µM; remark: listed apart in the source
[8] = as §1, with “WLS-039” for “WLS-098”, “ERS12561746” for “ERS12561754”; details: 2 µM
[9] = as §1, with “Z-006” for “WLS-098”, “mouse” for “human”, “ERS12561806” for “ERS12561754”; details: 2 µM
[10] = human gut metagenome, 24 h, 2 µM; remark: listed apart in the source
[11] = human gut metagenome, 24 h, 2 µM; remark: listed apart in the source
[12] = human gut metagenome, 24 h, 2 µM; remark: listed apart in the source
[13] = as §1, with “WLS-170” for “WLS-098”, “ERS12561762” for “ERS12561754”; details: 2 µM
[14] = as §1, with “Z-008” for “WLS-098”, “to” for “to human gut”, “ERS12561808” for “ERS12561754”; details: 2 µM
[15] = human gut metagenome, 24 h, 2 µM; remark: listed apart in the source
[16] = as §1, with “WLS-010” for “WLS-098”, “ERS12561743” for “ERS12561754”; details: 2 µM
[17] = as §1, with “Z-014” for “WLS-098”, “rat” for “human”, “ERS12561814” for “ERS12561754”; details: 2 µM
[18] = as §1, with “Z-019” for “WLS-098”, “rat” for “human”, “ERS12561818” for “ERS12561754”; details: 2 µM
[19] = human gut metagenome, 24 h, 2 µM; remark: listed apart in the source
[20] = as §1, with “Z-002” for “WLS-098”, “rabbit” for “human”, “ERS12561802” for “ERS12561754”; details: 2 µM
Further: call rule not given here.

## CCN(C(C)=O)c1cccc(-c2ccnc3c(C#N)cnn23)c1 [ZALEPLON]
[1]
  Bacterial Biotransformation: Compound metabolized
[2]
  Bacterial Biotransformation: Compound metabolized
[3]
  Bacterial Biotransformation: Compound metabolized
[4]
  Bacterial Biotransformation: Compound metabolized
[5]
  Bacterial Biotransformation: Compound metabolized
[6]
  Bacterial Biotransformation: Compound NOT metabolized
[7]
  Bacterial Biotransformation: Compound metabolized
[8]
  Bacterial Biotransformation: Compound metabolized
[9]
  Bacterial Biotransformation: Compound NOT metabolized
[10]
  Bacterial Biotransformation: Compound metabolized
[11]
  Bacterial Biotransformation: Compound metabolized
[12]
  Bacterial Biotransformation: Compound metabolized
[13]
  Bacterial Biotransformation: Compound metabolized
[14]
  Bacterial Biotransformation: Compound NOT metabolized
[15]
  Bacterial Biotransformation: Compound metabolized
[16]
  Bacterial Biotransformation: Compound metabolized
[17]
  Bacterial Biotransformation: Compound NOT metabolized
[18]
  Bacterial Biotransformation: Compound NOT metabolized
[19]
  Bacterial Biotransformation: Compound NOT metabolized
[20]
  Bacterial Biotransformation: Compound metabolized
